Data as given in ChEMBL document CHEMBL5506015, “Discovery of a Meisoindigo-Derived PROTAC as the ATM Degrader: Revolutionizing Colorectal Cancer Therapy via Synthetic Lethality with ATR Inhibitors” (J Med Chem, 2024).
Active and inactive are the calls of the source. No cut-off for these calls is given here.

Assays:
[1] = Cytotoxicity against human HIEC-6 cells assessed as reduction in cell viability incubated for 48 hrs by MTT assay; type: toxicity, cell-based; details: HIEC-6 cells
A2780 = experiment: Cytotoxicity against human A2780 cells assessed as reduction in cell viability incubated for 48 hrs by MTT assay; details: A2780, 48 h
SW13 = experiment: Cytotoxicity against human SW13 cells assessed as reduction in cell viability incubated for 48 hrs by MTT assay; details: SW13, 48 h
NCI-H358 = experiment: Cytotoxicity against human NCI-H358 cells assessed as reduction in cell viability incubated for 48 hrs by MTT assay; details: NCI-H358, 48 h
SW-620 [2] = experiment: Cytotoxicity against human SW620 cells assessed as reduction in cell viability incubated for 48 hrs by MTT assay; details: SW-620, 48 h
SW480 = experiment: Cytotoxicity against human SW480 cells assessed as reduction in cell viability incubated for 48 hrs by MTT assay; details: SW480, 48 h
LoVo = experiment: Cytotoxicity against human LoVo cells assessed as reduction in cell viability incubated for 48 hrs by MTT assay
RKO = experiment: Cytotoxicity against human RKO cells assessed as reduction in cell viability incubated for 48 hrs by MTT assay
HCT-116 = experiment: Cytotoxicity against human HCT-116 cells assessed as reduction in cell viability incubated for 48 hrs by MTT assay; details: HCT-116, 48 h
COLO 205 = experiment: Cytotoxicity against human COLO 205 cells assessed as reduction in cell viability incubated for 48 hrs by MTT assay; details: COLO 205, 48 h
K562 = experiment: Cytotoxicity against human K562 cells assessed as reduction in cell viability incubated for 48 hrs by MTT assay; details: K562, 48 h
SW-620 [3] = experiment: Downregulation of KDM4B level in human SW620 cells at 1.25 to 10 uM measured after 12 hrs by immunoblot analysis; type: functional, cell-based; details: dose 1.25-10 µM
SW-620 [4] = experiment: Downregulation of PROX1 level in human SW620 cells at 1.25 to 10 uM measured after 12 hrs by immunoblot analysis; type: functional, cell-based; details: dose 1.25-10 µM
SW-620 [5] = experiment: Effect on ATM mRNA level in human SW620 cells at 2.5 to 10 uM incubated for 12 hr by RT-PCR analysis; type: functional, cell-based; details: dose 2.5-10 µM
SW-620 [6] = experiment: Antitumor activity against human SW620 cells xenografted in Balb/c nude mouse model assessed as reduction in tumor load at 25 mg/kg/day administered for 14 days by vernier caliper based analysis; type: functional, organism-based; details: time 14.0 day
SW-620 [7] = experiment: Antitumor activity against human SW620 cells xenografted in Balb/c nude mouse model assessed as increase in gamma-H2AX at 25 mg/kg/day measured after 14 days by Western blot analysis; type: functional, organism-based; details: time 14.0 day
SW-620 [8] = experiment: Antitumor activity against human SW620 cells xenografted in Balb/c nude mouse model assessed as decrease in ATM protein level at 25 mg/kg/day measured after 14 days by Western blot analysis; type: functional, organism-based; details: time 14.0 day
SW-620 [9] = experiment: Antitumor activity against human SW620 cells xenografted in Balb/c nude mouse model assessed as decrease in BCL2 protein level at 25 mg/kg/day measured after 14 days by Western blot analysis; type: functional, organism-based; details: time 14.0 day
SW-620 [10] = experiment: Antitumor activity against human SW620 cells xenografted in Balb/c nude mouse model assessed as decrease in pro-caspase 3 level at 25 mg/kg/day measured after 14 days by Western blot analysis; type: functional, organism-based; details: time 14.0 day
SW-620 [11] = experiment: Antitumor activity against human SW620 cells xenografted in Balb/c nude mouse model assessed as decrease in cleaved caspase 3 level at 25 mg/kg/day measured after 14 days by Western blot analysis; type: functional, organism-based; details: time 14.0 day
SW-620 [12] = experiment: Antitumor activity against human SW620 cells xenografted in Balb/c nude mouse model assessed as increase in gamma-H2AX level at 25 mg/kg/day measured after 14 days by Western blot analysis; type: functional, organism-based; details: time 14.0 day
SW-620 [13] = experiment: Antitumor activity against human SW620 cells xenografted in Balb/c nude mouse model assessed as increase in cleaved-caspase 3 level at 25 mg/kg/day measured after 14 days by Western blot analysis; type: functional, organism-based; details: time 14.0 day
SW-620 [14] = experiment: Antitumor activity against human SW620 cells xenografted in Balb/c nude mouse model assessed as necrosis at 25 mg/kg/day measured after 14 days by H and E staining based analysis; type: functional, organism-based; details: time 14.0 day
SW-620 [15] = experiment: Antitumor activity against human SW620 cells xenografted in Balb/c nude mouse model assessed as inflammatory cell infiltration at 25 mg/kg/day measured after 14 days by H and E staining based analysis; type: functional, organism-based; details: time 14.0 day
SW-620 [16] = experiment: Antitumor activity against human SW620 cells xenografted in Balb/c nude mouse model assessed as fibrosis at 25 mg/kg/day measured after 14 days by H and E staining based analysis; type: functional, organism-based; details: time 14.0 day

SMILES | IC50 at 48 h [1] [µM] | IC50 (A2780) [µM] | IC50 (SW13) [µM] | IC50 (NCI-H358) [µM] | IC50 (SW-620 [2]) [µM] | IC50 (SW480) [µM] | IC50 (LoVo) [µM] | IC50 (RKO) [µM] | IC50 (HCT-116) [µM] | IC50 (COLO 205) [µM] | IC50 (K562) [µM] | further results
Cc1ncsc1-c1ccc(CNC(=O)[C@@H]2C[C@@H](O)CN2C(=O)[C@@H](NC(=O)OC(C)(C)C)C(C)(C)C)cc1 | > 20 | > 20 | > 20 | > 20 | > 20 | > 20 | > 20 | > 20 | > 20 | > 20 | > 20 | –
CC(C)n1c(=O)n(C)c2cnc3cc(F)c(-c4ccc(OCCCN5CCCCC5)nc4)cc3c21 [AZD-1390] | > 20 | > 20 | > 20 | > 20 | > 20 | > 20 | > 20 | > 20 | > 20 | > 20 | > 20 | –
O=c1[nH]cc(F)c(=O)[nH]1 [FLUOROURACIL] | 18.6 | 12.9 | > 20 | > 20 | 13.8 | 12.6 | 9.89 | 3.43 | – | 4.54 | > 20 | –
CN1C(=O)/C(=C2/C(=O)Nc3ccccc32)c2ccccc21 [MEISOINDIGO] | 12 | 6.57 | 12.9 | > 20 | 9.14 | 2.8 | 12.7 | 11.6 | 5.36 | 7.55 | 8.17 | Activity (SW-620 [3]): Active; Activity (SW-620 [4]): Active; Activity (SW-620 [5]): inactive
C[C@@H]1COCCN1c1cc(C2([S@](C)(=N)=O)CC2)nc(-c2cc[nH]c3nccc2-3)n1 | – | – | – | – | – | – | – | – | – | – | – | Activity (SW-620 [6]): Active; Activity (SW-620 [7]): Active; Activity (SW-620 [8]): Active; Activity (SW-620 [9]): Active; Activity (SW-620 [10]): Active; Activity (SW-620 [11]): Active; Activity (SW-620 [12]): Active; Activity (SW-620 [13]): Active; Activity (SW-620 [14]): Active; Activity (SW-620 [15]): Active; Activity (SW-620 [16]): Active
O=C1CCC(N2Cc3c(NCCCCCCn4cc(CCCN5C(=O)/C(=C6/C(=O)Nc7ccccc76)c6ccccc65)nn4)cccc3C2=O)C(=O)N1 (stereo not drawn) | > 20 | 7.47 | > 20 | > 20 | 7.76 | > 20 | 15.1 | 6.79 | > 20 | > 20 | > 20 | –
